# Reference: BindingDB's records for doi:10.1021/jm00018a006 (University of Arizona, 1995)
# *1 amine or outer side, *2 acyl side, *3 side chain or, on linkers, in order; H or OH if unused. Where a SMILES comes first, the peptide text is derived from it. Side-chain parts run from the residue outwards. [ ]: non-standard residue; d: D form. X4 = CC(C)C[C@@H](CN([C@@H](CCCN=C(N)N)C(=O)[*:2])[*:1])N[*:3]
# Biological target: Delta-type opioid receptor (Cavia porcellus)
# Test: Binding affinity against delta opioid receptor of Guinea pig brain homogenate using [3H]c[D-Pen2,p-Cl-Phe4,D-Pen5]enkephalin
row,Structure (SMILES),IC50
1,CC[C@H](C)[C@H](NC(=O)[C@H](CCCN=C(N)N)NC[C@H](CCCCN)NC(=O)[C@H](CC(C)C)NC(=O)[C@H](Cc1ccccc1)NC(=O)CNC(=O)CNC(=O)[C@@H](N)Cc1ccc(O)cc1)C(=O)N[C@@H](CCCN=C(N)N)C(=O)N1CCC[C@H]1C(=O)N[C@@H](CCCCN)C(N)=O,53 nM
2,CC[C@H](C)[C@H](NC(=O)[C@H](CCCN=C(N)N)NC(=O)[C@H](CCCN=C(N)N)NC(=O)[C@H](CC(C)C)NC(=O)[C@H](Cc1ccccc1)NC(=O)CNC(=O)CNC[C@@H](N)Cc1ccc(O)cc1)C(=O)N[C@@H](CCCN=C(N)N)C(=O)N1CCC[C@H]1C(=O)N[C@@H](CCCCN)C(N)=O,198 nM
3,CC[C@H](C)[C@H](NC(=O)[C@H](CCCN=C(N)N)NC(=O)[C@H](CCCN=C(N)N)NC[C@H](CC(C)C)NC(=O)[C@H](Cc1ccccc1)NC(=O)CNC(=O)CNC(=O)[C@@H](N)Cc1ccc(O)cc1)C(=O)N[C@@H](CCCN=C(N)N)C(=O)N1CCC[C@H]1C(=O)N[C@@H](CCCCN)C(N)=O (H-[X4]([Phe-Gly-Gly-Tyr])RIRPK-NH2),32 nM
